Laboratory results reported in article PMC2666327 (Chembiochem : a European journal of chemical biology, 2008).

Molecular target: T1, Type I Ins(1,4,5)P3 5-phosphatase (Homo sapiens, UniProt Q14642)
T1 sequence (Q14642 1-412 limits assumed): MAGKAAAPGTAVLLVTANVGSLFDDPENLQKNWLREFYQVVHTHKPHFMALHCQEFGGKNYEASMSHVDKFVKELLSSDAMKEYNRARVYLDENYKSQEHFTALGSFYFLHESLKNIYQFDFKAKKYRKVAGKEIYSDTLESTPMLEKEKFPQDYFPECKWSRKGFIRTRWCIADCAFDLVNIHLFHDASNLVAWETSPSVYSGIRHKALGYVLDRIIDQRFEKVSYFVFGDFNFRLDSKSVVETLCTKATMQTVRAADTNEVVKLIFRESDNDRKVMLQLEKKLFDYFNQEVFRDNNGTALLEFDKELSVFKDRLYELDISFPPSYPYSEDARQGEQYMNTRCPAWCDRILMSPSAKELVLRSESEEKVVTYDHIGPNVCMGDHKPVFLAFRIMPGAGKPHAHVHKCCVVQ
Assay: [3H]Ins
Assay type: biochemical

O=P(O)(O)Oc1ccc(OP(=O)(O)O)c(OP(=O)(O)O)c1OCc1ccccc1 [compound 30, 3-benzyloxybenzene 1,2,4-trisphosphate]
IC50: 68 ± 16 µM
